Experimental data: patent US7754654B2, “Substituted spirocyclic ketoenols” (Bayer CropScience AG, priority 2002, dated 2010)

Experiments:
Type in all cases: in vivo
[1] = test system: larvae of the mustard beetle (Phaedon cochleariae); test: Phaedon larvae test (cabbage leaf dip); conditions: 1000 ppm
Protocol: To produce a suitable preparation of active compound, 1 part by weight of active compound is mixed with the stated amounts of solvent and emulsifier, and the concentrate is diluted with emulsifier-containing water to the desired concentration. Cabbage leaves (Brassica oleracea) are treated by being dipped into the preparation of active compound of the desired concentration and are populated with larvae of the mustard beetle (Phaedon cochleariae) while the leaves are still moist. After the desired period of time, the kill in % is determined. 100% means that all beetle larvae have been killed; 0% means that none of the beetle larvae have been killed.

Amaranthus [2] = test: Pre-emergence test; conditions: 250 g of ai/ha, after three weeks
Protocol: (§1) To produce a suitable preparation of active compound, 1 part by weight of active compound is mixed with the stated amount of solvent, the stated amount of emulsifier is added and the concentrate is diluted with water to the desired concentration. Seeds of the test plants are sown in normal soil. After about 24 hours, the soil is sprayed with the preparation of active compound such that the particular amounts of active compound desired are applied per unit area. The concentration of the spray liquor is chosen such that the particular amounts of active compound desired are applied in 1000 l of water/ha. After three weeks, the degree of damage to the plants is rated in % damage in comparison to the development of the untreated control. The figures denote: • 0%=no effect (like untreated control) • 100%=total destruction

Setaria [3] = test: Pre-emergence test; conditions: 250 g of ai/ha, after three weeks
Protocol: as §1

Sinapis [4] = test: Pre-emergence test; conditions: 250 g of ai/ha, after three weeks
Protocol: as §1

Avena fatua = test: Pre-emergence test; conditions: 250 g of ai/ha, after three weeks
Protocol: as §1

Echinochloa = test: Pre-emergence test; conditions: 250 g of ai/ha, after three weeks
Protocol: as §1

Alopecurus [5] = test: Pre-emergence test; conditions: 250 g of ai/ha, after three weeks
Protocol: as §1

Sugar beet [6] = test: Pre-emergence test; conditions: 250 g of ai/ha, after three weeks
Protocol: as §1

Amaranthus [7] = test: Post-emergence test; conditions: 250 g of ai/ha, after three weeks
Protocol: as §1, with “Test plants” for “Seeds”, “a height of 5-15 cm” for “the test plants”, “are” for “are sown in normal soil. After about 24 hours, the soil is”

Sinapis [8] = test: Post-emergence test; conditions: 250 g of ai/ha, after three weeks
Protocol: as §1, with “Test plants” for “Seeds”, “a height of 5-15 cm” for “the test plants”, “are” for “are sown in normal soil. After about 24 hours, the soil is”

Galium = test: Post-emergence test; conditions: 250 g of ai/ha, after three weeks
Protocol: as §1, with “Test plants” for “Seeds”, “a height of 5-15 cm” for “the test plants”, “are” for “are sown in normal soil. After about 24 hours, the soil is”

Abutilon = test: Post-emergence test; conditions: 250 g of ai/ha, after three weeks
Protocol: as §1, with “Test plants” for “Seeds”, “a height of 5-15 cm” for “the test plants”, “are” for “are sown in normal soil. After about 24 hours, the soil is”

Alopecurus [9] = test: Post-emergence test; conditions: 250 g of ai/ha, after three weeks
Protocol: as §1, with “Test plants” for “Seeds”, “a height of 5-15 cm” for “the test plants”, “are” for “are sown in normal soil. After about 24 hours, the soil is”

Setaria [10] = test: Post-emergence test; conditions: 250 g of ai/ha, after three weeks
Protocol: as §1, with “Test plants” for “Seeds”, “a height of 5-15 cm” for “the test plants”, “are” for “are sown in normal soil. After about 24 hours, the soil is”

Cyperus = test: Post-emergence test; conditions: 250 g of ai/ha, after three weeks
Protocol: as §1, with “Test plants” for “Seeds”, “a height of 5-15 cm” for “the test plants”, “are” for “are sown in normal soil. After about 24 hours, the soil is”

Sugar beet [11] = test: Post-emergence test; conditions: 250 g of ai/ha, after three weeks
Protocol: as §1, with “Test plants” for “Seeds”, “a height of 5-15 cm” for “the test plants”, “are” for “are sown in normal soil. After about 24 hours, the soil is”

Structure (SMILES) | Kill rate in % after 7d [1] [%] | % damage (Amaranthus [2]) [%] | % damage (Setaria [3]) [%] | % damage (Sinapis [4]) [%] | % damage (Avena fatua) [%] | % damage (Echinochloa) [%] | % damage (Alopecurus [5]) [%] | % damage (Sugar beet [6]) [%] | % damage (Amaranthus [7]) [%] | % damage (Sinapis [8]) [%] | % damage (Galium) [%] | % damage (Abutilon) [%] | % damage (Alopecurus [9]) [%] | % damage (Setaria [10]) [%] | % damage (Cyperus) [%] | % damage (Sugar beet [11]) [%]
Cc1cc(C)c(C2=C(O)C3(CCC(OCC4CCCO4)CC3)NC2=O)c(C)c1 (single isomer, unassigned) [Ex. I-1-a-7] | 100 | 95 | 100 | 90 | 95 | 99 | 80 | 0 |  |  |  |  |  |  |  | 
Cc1cc(C)c(C2=C(O)C3(CCC(OCc4ccc(Cl)cc4)CC3)NC2=O)c(C)c1 (single isomer, unassigned) [Ex. I-1-a-27] |  |  |  |  |  |  |  |  | 90 | 80 | 70 | 80 | 90 |  |  | 
Cc1cc(C)c(C2=C(OC(=O)C(C)C)C3(CCC(OCc4ccccc4)CC3)NC2=O)c(C)c1 (single isomer, unassigned) [Ex. I-1-b-2] |  |  |  |  |  |  |  |  |  | 70 |  |  | 80 | 95 | 80 | 0
